In US20080021044A1 (priority 2006, published 2008):

Test: Solubility of the compound of formula (I) as a function of time in aqueous solvents (HPLC)
Format: physicochemical
Details: thermodynamic from solid; for solubility at 1 h / solubility at 2 h / solubility at 4 h / solubility at 24 h / solubility at 48 h / solubility at 0.5 h: 25° C. water bath, agitated; for solubility at 0.5 h: ½ hr; for solubility at 7 days: kept at room temperature with no agitation
Method: The sample vials were pulled out at each time point, the pH was measured and the sample was filtered a 0.45 μm PTFE membrane filter. The filtrate was appropriately diluted with the dilution solvent and the concentration of the compound was measured using HPLC. HPLC conditions were as follows: Method: Isocratic method, 70% mobile phase A −30% mobile phase B; Column: Supelco Discovery HS-C18, 3 μm, 4.6×150mm; Mobile Phase A: 0.05% TFA in water; B: 0.05% TFA in acetonitrile; Flow rate: 1.0 mL/min; Detection: UV: Wavelength: 240 nm, bandwidth 4 nm; Reference wavelength: 450 nm, bandwidth 80 nm; Run time: 6 min; Injection volume: 10 μL.

[1] = aqueous buffer, 0.1N NaOH (pH ˜12.8)
[2] = aqueous buffer, borate buffer pH 8
[3] = aqueous buffer, borate buffer pH 10
[4] = aqueous buffer, citrate buffer pH 2
[5] = aqueous buffer, citrate buffer pH 4
[6] = aqueous buffer, citrate buffer pH 6
[7] = simulated gastric fluid, 0.1N HCl
[8] = simulated intestinal fluid (SIF), fassgf or other biorelevant, SIF (pH ˜6.75)

Cc1cnc(NCC(F)(F)c2ccccc2)c(=O)n1CC(=O)NCCONC(=N)N [compound of formula (I), N-[2-[[(diaminomethylene)amino]oxy]ethyl]-3-[(2,2-difluoro-2-phenylethyl)amino]-6-methyl-2-oxo-1(2H)-pyrazineacetamide]
solubility at 1 h [1]: 980 µg/mL | solubility at 2 h [1]: 980 µg/mL | solubility at 4 h [1]: 1000 µg/mL | solubility at 24 h [1]: 1000 µg/mL | solubility at 48 h [1]: 990 µg/mL | solubility at 0.5 h [1]: 920 µg/mL | solubility at 4 h [2]: 1300 µg/mL | solubility at 24 h [2]: 1200 µg/mL | solubility at 48 h [2]: 1200 µg/mL | solubility at 4 h [3]: 1000 µg/mL | solubility at 24 h [3]: 1000 µg/mL | solubility at 48 h [3]: 1000 µg/mL | solubility at 1 h [4]: 8700 µg/mL | solubility at 2 h [4]: 8800 µg/mL | solubility at 4 h [4]: 10400 µg/mL | solubility at 24 h [4]: 6900 µg/mL | solubility at 48 h [4]: 7500 µg/mL | solubility at 7 days [4]: 4000 µg/mL | solubility at 0.5 h [4]: 7600 µg/mL | solubility at 1 h [5]: 2400 µg/mL | solubility at 2 h [5]: 2800 µg/mL | solubility at 4 h [5]: 2500 µg/mL | solubility at 24 h [5]: 2700 µg/mL | solubility at 48 h [5]: 2700 µg/mL | solubility at 0.5 h [5]: 2100 µg/mL | solubility at 1 h [6]: 1800 µg/mL | solubility at 2 h [6]: 1800 µg/mL | solubility at 4 h [6]: 2000 µg/mL | solubility at 24 h [6]: 1600 µg/mL | solubility at 48 h [6]: 1500 µg/mL | solubility at 7 days [6]: 1300 µg/mL | solubility at 0.5 h [6]: 2100 µg/mL | solubility at 1 h [7]: 40200 µg/mL | solubility at 2 h [7]: 40900 µg/mL | solubility at 4 h [7]: 43000 µg/mL | solubility at 24 h [7]: 40400 µg/mL | solubility at 48 h [7]: 39200 µg/mL | solubility at 7 days [7]: 26900 µg/mL | solubility at 0.5 h [7]: 31600 µg/mL | solubility (simulated intestinal fluid (SIF), 25 °C, pH 6.75, fassgf or other biorelevant): 2700 to 2800 µg/mL | solubility at 4 h [8]: 2800 µg/mL | solubility at 24 h [8]: 2700 µg/mL | solubility at 48 h [8]: 2700 µg/mL | solubility at 4 h (water (pH ˜9)): 1100 µg/mL | solubility at 24 h (water (pH ˜9)): 1100 µg/mL | solubility at 48 h (water (pH ˜9)): 1100 µg/mL
